Source: patent US10716869B2, “Radiolabeled macrocyclic EGFR inhibitor” (Oncodesign SA, priority 2016, dated 2020)

Key:
[1] = target: T1, NCI-H3255 tumor homogenates (activated EGFR) (Homo sapiens, UniProt P00533, L858R); assay: binding competition and binding kinetic on tumor homogenates
T1 construct: from tissue; host or cells: NCI-H3255 tumor homogenate
Protocol: (§1) FIG. 2: Binding affinity constant of Compound (II) determined in competition experiments on NCI-H3255 (A) and NCI-H1975 (B) tumor extracts. NCI-H3255 and NCI-H1975 tumor extracts were incubated at room temperature for 90 min with Compound (II) (0.1-0.3 nM) and with increasing concentrations of Compound (IIa) (0.25 nM to 1 μM).
(§2) FIG. 3: Binding kinetic of Compound (II) evaluated on NCI-H3255 (A) and NCI-H1975 (B) tumor extracts. Compound (II) (1.5-2.5 nM) was incubated with extracts for 2 to 90 minutes at room temperature. Non-specific binding was evaluated in the presence of a>100 fold excess Compound (IIa).
(§3) Similar experiments were performed on NCI-H3255 and NCI-H1975 tumor homogenates (FIG. 2). […] The number of binding sites was 1.1±1.5×10^9 and 1.6±1.8×10^9 sites/μg protein respectively in NCI-H3255 and NCI-H1975 tumor homogenates.
(§4) The binding kinetic of Compound (I) was also assessed in NCI-H3255 and NCI-H1975 tumor homogenates (FIG. 3).

[2] = target: T2, NCI-H1975 tumor homogenates (activated EGFR) (Homo sapiens, UniProt P00533, L858R/T790M); assay: as above
T2 construct: from tissue; host or cells: NCI-H1975 tumor homogenate
Protocol: as §1, §2, §3, §4

[3] = target: T3, NCI-H3255 tumor cell homogenates (activated EGFR) (Homo sapiens, UniProt P00533, L858R); assay: binding competition on tumor cell homogenates
T3 construct: endogenous in cells; host or cells: NCI-H3255
Protocol: (§5) FIG. 1: Binding affinity constant of Compound (II) determined in competition experiments on NCI-H3255 (A) and NCI-H441 (B) cell line extracts. NCI-H3255 and NCI-H441 cell line extracts were incubated at room temperature for 90 min with Compound (II) (0.5-0.7 nM) and with increasing concentrations of Compound (IIa) (0.05 nM to 10 μM).
(§6) The binding affinity of Compound (I) and the number of binding sites were first evaluated on NCI-H3255 and NCI-H441 tumor cell homogenates (FIG. 1). […] The number of binding sites was of the same order of magnitude (6.1±0.5×10^9 sites/μg protein).

[4] = target: T4, NCI-H441 tumor cell homogenates (activated EGFR) (Homo sapiens, UniProt P00533); assay: binding competition on tumor cell homogenates
T4 construct: endogenous in cells; host or cells: NCI-H441
Protocol: as §5, §6

[5] = system: human lung tumors (wild type EGFR, L858R mutated or exon 19 deleted EGFR); assay: autoradiography on human frozen tumor sections
Source text: Three types of human lung tumors were included: tumors harboring wild type EGFR and tumors carrying L858R mutated or exon 19 deleted EGFR genes.

[6] = biodistribution in tumor-bearing Nude rats (ex vivo gamma counting)
Protocol: Dynamic PET scan imaging and ex vivo gamma counting were performed on three cancer xenografts (NCI-H441, NCI-H3255, NCI-H1975) in Nude rats. Xenografts were initiated in athymic, Hsd:RH-Foxnlrnu rats (Harlan, The Netherlands) by subcutaneous injection of 2×10^7 cells in 200 μL RPMI 1640 in the left and right flanks. NCI-H3255 tumor cells were injected in the right flank and NCI-H441 or NCI-H1975 in the left flank. Each study consisted in two experiments on 18 or 19 rats, for a total of 113 rats. Injection of NCI-H3255 cells was performed on DO, 24 to 72 hours after a whole-body irradiation with a […] (5 Gy, ^60Co, BioMep SARL, Bretenières, France). […]
The radiotracer solution was diluted in NaCl 0.9% to prepare a solution of activity 4-6 MBq (gamma-counting experiments) or 25-35 MBq (PET imaging experiments) in a volume of 300-400 or 600-800 μL, respectively. The radioactivity in the syringe was measured before and after tracer injection to determine the injected dose (ID) to animals. […]
For ex vivo gamma counting, after the determined uptake period or after imaging, rats were euthanized by decapitation, and the following organs were harvested and weighed: tumor, kidneys, blood, liver, heart, tail, thigh muscle, lungs, spleen and skin. Tracer distribution was assessed by determining ^18F content in each tissue with a gamma-well counter (PerkinElmer 2480 Wizard2 3). […]

[7] = read-out: dissociation constant (Koff) (converted)
[8] = read-out: binding affinity (Kd)

T2 sequence (P00533 25-1210 T790M/L858R): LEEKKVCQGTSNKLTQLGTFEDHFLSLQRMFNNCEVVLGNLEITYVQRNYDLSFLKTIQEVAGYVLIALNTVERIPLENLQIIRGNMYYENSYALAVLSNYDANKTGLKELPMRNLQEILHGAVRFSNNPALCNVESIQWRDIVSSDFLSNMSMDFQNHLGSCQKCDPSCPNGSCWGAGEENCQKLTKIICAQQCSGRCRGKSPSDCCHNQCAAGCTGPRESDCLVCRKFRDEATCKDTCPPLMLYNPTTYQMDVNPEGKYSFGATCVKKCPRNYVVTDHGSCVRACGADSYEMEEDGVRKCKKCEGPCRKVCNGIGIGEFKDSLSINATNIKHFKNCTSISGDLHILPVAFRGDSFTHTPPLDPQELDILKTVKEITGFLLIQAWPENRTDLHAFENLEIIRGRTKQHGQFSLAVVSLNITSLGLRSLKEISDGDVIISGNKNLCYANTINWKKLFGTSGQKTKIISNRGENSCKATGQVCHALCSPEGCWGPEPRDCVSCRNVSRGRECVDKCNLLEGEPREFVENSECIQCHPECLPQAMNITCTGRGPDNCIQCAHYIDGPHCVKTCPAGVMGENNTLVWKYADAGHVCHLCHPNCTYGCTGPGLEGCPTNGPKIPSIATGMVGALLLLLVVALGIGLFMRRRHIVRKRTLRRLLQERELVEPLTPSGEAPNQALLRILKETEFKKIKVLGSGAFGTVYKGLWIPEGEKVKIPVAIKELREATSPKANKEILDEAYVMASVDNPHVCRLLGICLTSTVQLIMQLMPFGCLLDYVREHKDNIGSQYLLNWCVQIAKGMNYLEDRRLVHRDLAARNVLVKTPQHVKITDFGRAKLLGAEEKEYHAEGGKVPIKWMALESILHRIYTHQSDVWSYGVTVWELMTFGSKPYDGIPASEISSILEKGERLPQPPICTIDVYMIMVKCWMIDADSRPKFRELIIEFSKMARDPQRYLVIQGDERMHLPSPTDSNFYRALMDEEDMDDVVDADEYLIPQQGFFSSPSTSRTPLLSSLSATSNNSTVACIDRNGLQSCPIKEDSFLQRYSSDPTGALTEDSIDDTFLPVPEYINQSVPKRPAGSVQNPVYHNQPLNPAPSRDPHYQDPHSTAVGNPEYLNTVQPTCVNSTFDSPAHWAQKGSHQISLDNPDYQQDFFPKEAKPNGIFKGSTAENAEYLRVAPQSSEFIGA
T1 sequence (P00533 25-1210 L858R): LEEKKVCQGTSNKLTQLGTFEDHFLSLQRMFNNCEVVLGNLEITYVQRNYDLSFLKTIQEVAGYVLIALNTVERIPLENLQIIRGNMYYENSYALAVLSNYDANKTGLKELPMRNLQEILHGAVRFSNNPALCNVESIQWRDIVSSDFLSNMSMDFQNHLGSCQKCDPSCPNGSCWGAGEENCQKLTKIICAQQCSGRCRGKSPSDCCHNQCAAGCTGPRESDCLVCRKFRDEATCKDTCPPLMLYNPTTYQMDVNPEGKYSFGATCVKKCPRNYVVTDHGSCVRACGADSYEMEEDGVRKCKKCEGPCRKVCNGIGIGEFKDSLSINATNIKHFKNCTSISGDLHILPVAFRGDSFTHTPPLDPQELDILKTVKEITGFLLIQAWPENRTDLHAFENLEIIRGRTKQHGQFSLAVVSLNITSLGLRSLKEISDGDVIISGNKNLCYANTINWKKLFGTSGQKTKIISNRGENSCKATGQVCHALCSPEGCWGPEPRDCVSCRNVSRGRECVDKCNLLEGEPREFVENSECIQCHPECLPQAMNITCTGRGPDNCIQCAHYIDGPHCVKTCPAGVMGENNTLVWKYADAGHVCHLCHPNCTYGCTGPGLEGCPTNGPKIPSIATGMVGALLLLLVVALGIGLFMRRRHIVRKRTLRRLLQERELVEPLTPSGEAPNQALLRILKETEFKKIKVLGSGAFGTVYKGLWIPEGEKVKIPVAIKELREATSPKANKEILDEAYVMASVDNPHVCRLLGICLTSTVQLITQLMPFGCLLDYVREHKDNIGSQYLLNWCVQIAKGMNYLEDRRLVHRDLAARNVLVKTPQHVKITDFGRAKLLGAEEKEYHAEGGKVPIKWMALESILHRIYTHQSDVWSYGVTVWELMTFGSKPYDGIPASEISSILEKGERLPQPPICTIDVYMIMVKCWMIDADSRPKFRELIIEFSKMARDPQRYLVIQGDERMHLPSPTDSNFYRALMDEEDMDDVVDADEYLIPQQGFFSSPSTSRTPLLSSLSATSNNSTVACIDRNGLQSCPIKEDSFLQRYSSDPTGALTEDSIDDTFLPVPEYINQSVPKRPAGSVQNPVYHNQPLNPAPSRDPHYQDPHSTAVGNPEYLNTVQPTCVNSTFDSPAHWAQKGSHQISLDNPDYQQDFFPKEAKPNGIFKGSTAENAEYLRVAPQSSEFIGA
T3 sequence (P00533 25-1210 L858R): as above
T4 sequence (P00533 25-1210): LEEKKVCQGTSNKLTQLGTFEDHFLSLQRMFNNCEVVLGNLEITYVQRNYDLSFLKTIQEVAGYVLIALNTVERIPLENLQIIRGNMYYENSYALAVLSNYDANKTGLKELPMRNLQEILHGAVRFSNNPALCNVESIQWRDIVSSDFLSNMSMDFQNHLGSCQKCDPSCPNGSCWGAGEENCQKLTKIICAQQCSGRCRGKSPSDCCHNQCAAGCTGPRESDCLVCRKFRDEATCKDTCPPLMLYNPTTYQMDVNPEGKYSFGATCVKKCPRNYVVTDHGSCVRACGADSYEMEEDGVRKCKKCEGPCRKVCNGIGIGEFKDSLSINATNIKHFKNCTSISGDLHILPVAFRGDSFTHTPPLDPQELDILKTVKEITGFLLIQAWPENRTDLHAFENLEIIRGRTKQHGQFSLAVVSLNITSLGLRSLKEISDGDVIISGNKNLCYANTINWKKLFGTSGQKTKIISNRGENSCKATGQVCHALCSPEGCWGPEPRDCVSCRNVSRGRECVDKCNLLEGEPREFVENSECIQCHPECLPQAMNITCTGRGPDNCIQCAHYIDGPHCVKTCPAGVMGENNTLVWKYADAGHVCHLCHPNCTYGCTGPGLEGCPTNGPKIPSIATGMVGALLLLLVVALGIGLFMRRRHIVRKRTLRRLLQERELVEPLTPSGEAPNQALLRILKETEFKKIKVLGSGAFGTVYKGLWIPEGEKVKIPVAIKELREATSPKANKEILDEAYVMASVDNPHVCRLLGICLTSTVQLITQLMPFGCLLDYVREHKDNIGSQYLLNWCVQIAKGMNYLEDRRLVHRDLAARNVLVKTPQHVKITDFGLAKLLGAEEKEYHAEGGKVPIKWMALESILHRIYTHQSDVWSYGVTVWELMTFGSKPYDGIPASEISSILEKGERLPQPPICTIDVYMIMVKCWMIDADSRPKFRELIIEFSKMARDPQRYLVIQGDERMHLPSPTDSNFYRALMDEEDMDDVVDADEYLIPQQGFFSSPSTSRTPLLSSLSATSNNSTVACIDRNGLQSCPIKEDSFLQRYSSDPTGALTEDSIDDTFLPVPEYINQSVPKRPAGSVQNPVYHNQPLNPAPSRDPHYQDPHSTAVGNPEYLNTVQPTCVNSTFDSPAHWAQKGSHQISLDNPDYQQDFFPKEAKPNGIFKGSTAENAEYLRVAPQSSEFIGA

For `CC(C)C1NC(=O)Cc2ccc(Cl)cc2Nc2ncnc3cc(OCC[18F])c(cc23)OCCCNC1=O` (stereo not shown) [Compound (I)], the “number of binding sites” value [1] was 1.1±1.5×10^9 sites/μg protein, the Kd ([1]; read-out: binding affinity) was 0.0028 ± 0.0024 µM and the koff [1, 7] was 0.0019 s⁻¹. The “number of binding sites” value [2] was 1.6±1.8×10^9 sites/μg protein, the Kd ([2]; read-out: binding affinity) was 0.0047 ± 0.002 µM and the koff [2, 7] was 0.0045 s⁻¹. The “number of binding sites” value [3] was 9.1±3.1×10^9 sites/μg protein, the Kd [3, 8] was 0.0238 ± 0.009 µM and the “number of binding sites” value [4] was 6.1±0.5×10^9 sites/μg protein. The Kd [4, 8] was 0.0258 ± 0.0111 µM, the “specific binding on frozen tumor sections” value [5] was “specific binding of Compound (I) was observed on all tumor types” and the uptake in blood ([6]; after 45 min) was under 0.05 % ID/g. For the same molecule, the “absolute uptake in tumors” value ([6]; at 90 min) was under 0.5 % ID/g.
